Assay results reported in patent publication US8163921B2, “Hepatitis C virus inhibitors” (Bristol-Myers Squibb Company, priority 2008, dated 2012).
pIC50: −log10 of the molar value.

Tests used:
[1] = target: T1, HCV NS3/4A protease complex, BMS strain (UniProt P27958, C1454S/C1711G, species not given); experiment: FRET peptide assay to monitor HCV NS3/4A proteolytic activity (BMS strain); assay type: biochemical, HCV genotype 1a; details: read-out: IC50 Range; HCV NS3/4A enzyme assay; class symbols
T1 construct: other: HCV NS3/4A enzyme assay; class symbols; numeric values; fused on or other part: three-lysine solubilising tail at the C-terminus of NS4A; purified on Ni-NTA from the pET21b vector (His tag implied)
How it was run: (§1)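 Recombinant HCV NS3/4A protease complex (BMS strain, genotype 1a), 2-3 nM final (300 pM with 50 μg/ml BSA for very potent compounds), incubated with RET S1 EDANS/DABCYL depsipeptide substrate at 2 μM final. Buffer: 50 mM HEPES pH 7.5, 0.15 M NaCl, 0.1% Triton, 15% glycerol, 10 mM βME. Cleavage followed in real time by fluorescence.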

[2] = target: T2, HCV NS3/4A protease complex, BMS strain (UniProt P27958, C1454S/C1711G, species not given/STRAIN_BMS); experiment: as above; assay type: biochemical, HCV genotype 1a; details: read-out: IC50 against the NS3/4A BMS strain in the enzyme assay; BMS strain
T2 construct: other: BMS strain; fused on or other part: three-lysine solubilising tail at the C-terminus of NS4A; purified on Ni-NTA from the pET21b vector (His tag implied)
How it was run: as §1

C=C[C@@H]1C[C@]1(NC(=O)[C@@H]1C[C@@H](Oc2ncc(OC)c3ccc(Cl)cc23)CN1C(=O)[C@@H](Nc1nc(-c2cccc(OC(F)(F)F)c2)cs1)C(C)(C)C)C(=O)NS(=O)(=O)C1CC1 [Example 68]
pIC50 [1]: 7.70 to 9.00
pIC50 [2]: 8.40
